# Measurements published in ChEMBL document CHEMBL1201862, “PubChem BioAssay data set” (2004).
# Active and inactive are the calls of the source.
# Key:
# [1] = molecular target: T1, Short transient receptor potential channel 4 (Mus musculus, UniProt Q9QUQ5); assay: SAR Analysis for the identification of selective inhibits of the transient receptor potential cation channel C4 (TRPC4): Automated Electrophysiology_2. [Related pubchem assays (depositor defined):AID2256]; format: functional
# T1 sequence (Q9QUQ5 whole entry): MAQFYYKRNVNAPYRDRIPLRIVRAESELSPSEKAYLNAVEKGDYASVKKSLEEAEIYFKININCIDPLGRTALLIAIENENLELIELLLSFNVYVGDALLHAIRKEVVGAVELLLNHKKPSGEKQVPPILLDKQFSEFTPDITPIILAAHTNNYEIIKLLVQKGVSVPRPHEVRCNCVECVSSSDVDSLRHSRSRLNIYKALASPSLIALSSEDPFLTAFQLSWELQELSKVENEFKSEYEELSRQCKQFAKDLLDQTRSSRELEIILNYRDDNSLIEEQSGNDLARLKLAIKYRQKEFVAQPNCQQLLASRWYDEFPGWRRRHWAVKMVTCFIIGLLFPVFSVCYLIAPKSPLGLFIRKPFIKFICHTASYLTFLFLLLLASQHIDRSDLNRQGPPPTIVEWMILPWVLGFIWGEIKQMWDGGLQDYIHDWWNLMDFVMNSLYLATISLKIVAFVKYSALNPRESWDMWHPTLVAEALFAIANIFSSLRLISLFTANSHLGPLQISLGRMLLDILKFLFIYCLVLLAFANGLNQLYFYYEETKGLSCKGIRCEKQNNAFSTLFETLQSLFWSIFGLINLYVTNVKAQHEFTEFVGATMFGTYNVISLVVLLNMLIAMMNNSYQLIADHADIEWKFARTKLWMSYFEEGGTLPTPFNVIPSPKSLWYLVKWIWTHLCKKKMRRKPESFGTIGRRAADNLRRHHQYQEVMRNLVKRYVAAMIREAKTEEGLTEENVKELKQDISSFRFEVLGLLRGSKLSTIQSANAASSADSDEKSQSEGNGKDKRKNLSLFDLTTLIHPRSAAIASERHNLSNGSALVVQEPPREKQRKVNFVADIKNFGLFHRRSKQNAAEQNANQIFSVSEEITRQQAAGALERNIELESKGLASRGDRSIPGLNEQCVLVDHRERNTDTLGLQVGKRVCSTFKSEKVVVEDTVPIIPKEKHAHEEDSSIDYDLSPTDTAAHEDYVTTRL
# [2] = molecular target: T1, Short transient receptor potential channel 4; assay: mouse TRPC4 block via Gq-coupled stimulation – cell-based, acetylcholine stimulus, HEK293 TRPC4, Fluo-4, SAR follow-up (AID 492996); format: functional
# [3] = molecular target: Short transient receptor potential channel 6 (Mus musculus, UniProt Q61143); assay: mouse TRPC6 channel blockers, concentration series – HEK293 cells, membrane potential dye, IC50, selectivity assay for selective TRPC4 inhibitor project, dose response (AID 492987); format: functional, cell-based
# [4] = molecular target: T1, Short transient receptor potential channel 4; assay: potency of mouse TRPC4 calcium flux blockers – cell-based, HEK293 TRPC4/mu-opioid, DAMGO stimulus, Fluo-4, dose response (AID 492994); format: functional
# [5] = molecular target: Potassium voltage-gated channel subfamily KQT member 2 (Rattus norvegicus, UniProt O88943); assay: Mode of action assay-Dose response assay for compounds that activate KCNQ2 potassium channels on automated patch clamp. [Related pubchem assays (depositor defined):AID2239, AID2258, AID2287, AID493113]; format: functional
# [6] = molecular target: Potassium voltage-gated channel subfamily KQT member 4 (Homo sapiens, UniProt P56696); assay: activation of KCNQ4 potassium current – automated patch clamp, CHO cells, selectivity assay for KCNQ2 activator project, dose response (AID 493043); format: functional, cell-based
# [7] = molecular target: Potassium voltage-gated channel subfamily KQT member 2/member 3 (Rattus norvegicus, UniProt O88943+O88944); assay: Mode of action assay-Dose response assay for KCNQ2 activators in the KCNQ2/KCNQ3 co-expressing cells on automated patch clamp. [Related pubchem assays (depositor defined):AID2239, AID2258, AID2287]; format: functional
# [8] = luciferase reporter signal suppression in cells – H4 neuroglioma cells, luminescence, dose response (AID 1990); format: functional, cell-based
# [9] = Luminescence Cell-Based Dose Response HTS to Identify Inhibitors of 5'UTR Stem-Loop Driven Prion Protein mRNA Translation in H4 Neuroglioblastoma Cells. [Related pubchem assays: 1827 (Project Summary), 1813 (Primary HTS)]; format: functional
# [10] = alpha-synuclein stem-loop luciferase translation blockers – H4 neuroglioma cells, luminescence, confirmation (AID 1988); format: functional, cell-based
# [11] = viability of PTEN-deleted HCT116 cells – cell-based, HCT116 PTEN knockout, dose response (AID 1047); format: functional;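 further: HCT116 colon tumor cells with PTEN knocked out; cells exposed to compound for 60 hours before readout; potency for loss of cell viability measured by luminescence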
# [12] = viability of HCT116 lacking mutant beta-catenin – cell-based, human colon tumor, dose response (AID 1045); format: functional;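 further: HCT116 colon tumor cells with beta catenin knocked out; cells exposed to compound for 60 hours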
# [13] = molecular target: T2, Ubiquitin-conjugating enzyme E2 N (Homo sapiens, UniProt P61088); format: functional;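 further: Dose-response confirmation in a TR-FRET assay detecting UBC13-driven polyubiquitin chain formation, inhibition measured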
# T2 sequence (P61088 whole entry): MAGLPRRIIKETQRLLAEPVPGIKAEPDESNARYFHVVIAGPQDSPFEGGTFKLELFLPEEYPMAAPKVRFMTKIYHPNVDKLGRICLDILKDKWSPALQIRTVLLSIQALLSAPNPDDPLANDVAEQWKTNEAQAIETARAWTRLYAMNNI
# Cytochrome P450 2C19 = Cytochrome P450 2C19 (Homo sapiens, UniProt P33261); assay: Cytochrome panel assay with activity outcomes. Panel member name: p450-cyp2c19 Compounds with AC50 equal or less than 10 uM are considered active; format: functional; settings: read-out: AC50
# INS1 = assay: INS-1E survival protection against cytokine death – cell-based, luminescence, retest, dose response (AID 449756); format: functional; settings: Rattus norvegicus;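 further: cell death triggered by IL-1 beta plus TNF-alpha plus IFN-gamma mixture; protective hits raise ATP signal compared with cytokine alone wells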
# [14] = molecular target: Beta-2 adrenergic receptor (Homo sapiens, UniProt P07550); assay: ADRB2 activation measured by internalization – cell-based, FAP fluorogen, flow cytometry, cherry pick 1, dose response (AID 588763); format: functional
# [15] = reduction of Shn3 3'UTR-driven luciferase in osteoblasts – cell-based, Clone20 osteoblasts, firefly luciferase, cherry-picked, dose response (AID 624132); format: functional;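 further: firefly luciferase luminescence from reporter carrying the Shn3 3'UTR in osteoblasts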
# [16] = loss of viability in HepG2 cells – cell-based, CellTiter-Glo, cherry-picked, cytotoxicity control for Shn3 inhibitor project, dose response (AID 624134); format: functional
# [17] = non-specific 3'UTR reporter inhibition in Clone20-Shn3RL – cell-based, Renilla luciferase, cherry-picked, counter-screen for Shn3 inhibitor project, dose response (AID 624133); format: functional
# Cytochrome P450 2C9 = Cytochrome P450 2C9 (Homo sapiens, UniProt P11712)
# [18] = molecular target: Luciferin 4-monooxygenase (Photinus pyralis, UniProt P08659); assay: inhibition of purified Photinus pyralis luciferase – biochemical, dry powder samples, plate reader, dose response (AID 588451)
# H4 [19] = assay: inhibitors of control reporter signal in H4 cells – cell-based, plate reader, dry powder samples, counter-screen for prion reporter project, dose response (AID 540255); format: functional; settings: Homo sapiens
# H4 [20] = assay: Amyloid Precursor 5' UTR neuroblastoma cell reporter line Measured in Cell-Based System Using Plate Reader - 2078-04_Inhibitor_Dose_DryPowder_Activity. [Related pubchem assays (depositor defined):AID488894]; format: functional; settings: Homo sapiens
# H4 [21] = assay: Inhibitors of Prion Protein 5' UTR mRNA Measured in Cell-Based System Using Plate Reader - 2078-01_Inhibitor_Dose_DryPowder_Activity. [Related pubchem assays (depositor defined):AID488894]; format: functional; settings: Homo sapiens
# Chain of Beta-2 adrenergic receptor (P07550 whole entry): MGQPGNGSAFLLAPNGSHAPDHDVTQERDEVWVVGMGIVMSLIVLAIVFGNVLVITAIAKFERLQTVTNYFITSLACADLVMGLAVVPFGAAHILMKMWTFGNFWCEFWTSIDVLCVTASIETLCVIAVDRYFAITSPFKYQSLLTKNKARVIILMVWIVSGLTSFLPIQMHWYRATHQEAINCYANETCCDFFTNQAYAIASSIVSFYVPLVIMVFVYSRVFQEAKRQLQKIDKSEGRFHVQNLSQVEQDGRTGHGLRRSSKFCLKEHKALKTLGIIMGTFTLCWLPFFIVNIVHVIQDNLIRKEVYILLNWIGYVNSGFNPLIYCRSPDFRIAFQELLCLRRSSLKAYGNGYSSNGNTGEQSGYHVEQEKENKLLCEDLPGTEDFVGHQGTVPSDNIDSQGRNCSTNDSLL
# Chain of Potassium voltage-gated channel subfamily KQT member 2/member 3 (O88943 whole entry): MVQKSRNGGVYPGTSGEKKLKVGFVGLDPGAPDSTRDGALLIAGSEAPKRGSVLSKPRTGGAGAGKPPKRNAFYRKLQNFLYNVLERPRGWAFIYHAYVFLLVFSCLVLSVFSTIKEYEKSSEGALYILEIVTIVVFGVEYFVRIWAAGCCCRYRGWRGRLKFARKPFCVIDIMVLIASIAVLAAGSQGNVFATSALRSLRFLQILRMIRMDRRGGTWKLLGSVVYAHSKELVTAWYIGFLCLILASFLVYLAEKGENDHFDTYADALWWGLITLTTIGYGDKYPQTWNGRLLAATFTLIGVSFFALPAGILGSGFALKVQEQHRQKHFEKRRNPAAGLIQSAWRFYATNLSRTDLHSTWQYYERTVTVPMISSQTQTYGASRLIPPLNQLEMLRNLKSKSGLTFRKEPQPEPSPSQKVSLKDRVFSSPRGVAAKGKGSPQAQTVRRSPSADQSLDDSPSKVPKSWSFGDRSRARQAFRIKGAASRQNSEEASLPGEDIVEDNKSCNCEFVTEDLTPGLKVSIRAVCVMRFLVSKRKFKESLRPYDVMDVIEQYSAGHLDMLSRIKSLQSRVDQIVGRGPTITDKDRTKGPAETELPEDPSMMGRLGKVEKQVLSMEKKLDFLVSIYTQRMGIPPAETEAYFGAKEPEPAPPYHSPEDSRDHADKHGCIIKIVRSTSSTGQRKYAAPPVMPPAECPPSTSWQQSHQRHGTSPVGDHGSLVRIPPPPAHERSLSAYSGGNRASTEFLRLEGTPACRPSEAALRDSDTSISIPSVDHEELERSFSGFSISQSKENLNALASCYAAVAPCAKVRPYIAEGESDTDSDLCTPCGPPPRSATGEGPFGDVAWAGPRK
# Chain of Potassium voltage-gated channel subfamily KQT member 2/member 3 (O88944 whole entry): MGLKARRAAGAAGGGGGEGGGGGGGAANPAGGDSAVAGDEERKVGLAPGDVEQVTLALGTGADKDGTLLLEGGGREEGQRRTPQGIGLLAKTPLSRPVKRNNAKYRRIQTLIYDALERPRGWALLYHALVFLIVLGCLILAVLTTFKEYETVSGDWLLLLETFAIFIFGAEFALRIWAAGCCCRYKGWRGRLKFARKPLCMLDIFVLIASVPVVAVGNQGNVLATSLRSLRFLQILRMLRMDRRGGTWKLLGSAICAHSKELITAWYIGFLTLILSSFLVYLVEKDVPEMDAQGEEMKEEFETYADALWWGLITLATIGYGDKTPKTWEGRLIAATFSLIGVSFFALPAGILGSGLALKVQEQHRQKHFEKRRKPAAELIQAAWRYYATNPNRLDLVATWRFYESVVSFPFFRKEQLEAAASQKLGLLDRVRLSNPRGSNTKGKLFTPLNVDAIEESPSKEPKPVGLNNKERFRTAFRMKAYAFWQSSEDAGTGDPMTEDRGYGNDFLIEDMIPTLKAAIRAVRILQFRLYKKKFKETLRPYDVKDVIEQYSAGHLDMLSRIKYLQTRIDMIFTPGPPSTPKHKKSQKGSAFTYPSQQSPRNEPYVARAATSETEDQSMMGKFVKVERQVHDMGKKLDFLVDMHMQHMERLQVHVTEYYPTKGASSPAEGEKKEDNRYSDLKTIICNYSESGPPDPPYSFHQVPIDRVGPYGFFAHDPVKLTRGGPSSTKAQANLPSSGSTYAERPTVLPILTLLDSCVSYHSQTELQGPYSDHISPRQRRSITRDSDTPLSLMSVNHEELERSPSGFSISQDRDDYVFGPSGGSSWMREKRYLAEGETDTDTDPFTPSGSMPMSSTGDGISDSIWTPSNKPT
# Chain of Potassium voltage-gated channel subfamily KQT member 2 (O88943 whole entry): as the sequence (O88943 whole entry) above
# Chain of Cytochrome P450 2C19 (P33261 whole entry): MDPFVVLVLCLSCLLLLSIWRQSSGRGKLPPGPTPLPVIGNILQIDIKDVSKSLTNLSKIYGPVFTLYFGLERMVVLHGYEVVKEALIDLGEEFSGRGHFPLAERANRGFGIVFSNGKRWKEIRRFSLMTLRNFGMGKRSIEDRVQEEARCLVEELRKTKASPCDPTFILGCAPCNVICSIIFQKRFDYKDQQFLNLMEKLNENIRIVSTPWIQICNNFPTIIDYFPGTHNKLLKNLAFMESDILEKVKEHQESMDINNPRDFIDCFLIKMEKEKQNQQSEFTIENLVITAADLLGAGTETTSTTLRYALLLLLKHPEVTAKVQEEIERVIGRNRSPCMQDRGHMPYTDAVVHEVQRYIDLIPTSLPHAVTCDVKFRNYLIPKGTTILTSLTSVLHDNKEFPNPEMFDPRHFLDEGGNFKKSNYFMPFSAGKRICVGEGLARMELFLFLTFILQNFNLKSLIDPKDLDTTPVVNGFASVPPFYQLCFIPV
# Chain of Cytochrome P450 2C9 (P11712 whole entry): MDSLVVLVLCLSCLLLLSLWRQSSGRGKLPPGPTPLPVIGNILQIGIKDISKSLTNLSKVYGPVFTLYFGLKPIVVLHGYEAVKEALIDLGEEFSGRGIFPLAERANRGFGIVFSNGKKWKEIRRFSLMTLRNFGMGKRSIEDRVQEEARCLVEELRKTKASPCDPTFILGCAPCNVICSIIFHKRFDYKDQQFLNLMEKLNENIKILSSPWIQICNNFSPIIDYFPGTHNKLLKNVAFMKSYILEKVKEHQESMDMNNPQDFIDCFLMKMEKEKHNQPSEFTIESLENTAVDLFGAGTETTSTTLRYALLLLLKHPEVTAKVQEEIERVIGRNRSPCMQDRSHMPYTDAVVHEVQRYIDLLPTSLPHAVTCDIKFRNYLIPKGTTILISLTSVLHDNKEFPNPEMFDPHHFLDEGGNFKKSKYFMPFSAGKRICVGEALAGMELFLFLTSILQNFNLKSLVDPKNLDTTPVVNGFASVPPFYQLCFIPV
# Chain of Short transient receptor potential channel 6 (Q61143 whole entry): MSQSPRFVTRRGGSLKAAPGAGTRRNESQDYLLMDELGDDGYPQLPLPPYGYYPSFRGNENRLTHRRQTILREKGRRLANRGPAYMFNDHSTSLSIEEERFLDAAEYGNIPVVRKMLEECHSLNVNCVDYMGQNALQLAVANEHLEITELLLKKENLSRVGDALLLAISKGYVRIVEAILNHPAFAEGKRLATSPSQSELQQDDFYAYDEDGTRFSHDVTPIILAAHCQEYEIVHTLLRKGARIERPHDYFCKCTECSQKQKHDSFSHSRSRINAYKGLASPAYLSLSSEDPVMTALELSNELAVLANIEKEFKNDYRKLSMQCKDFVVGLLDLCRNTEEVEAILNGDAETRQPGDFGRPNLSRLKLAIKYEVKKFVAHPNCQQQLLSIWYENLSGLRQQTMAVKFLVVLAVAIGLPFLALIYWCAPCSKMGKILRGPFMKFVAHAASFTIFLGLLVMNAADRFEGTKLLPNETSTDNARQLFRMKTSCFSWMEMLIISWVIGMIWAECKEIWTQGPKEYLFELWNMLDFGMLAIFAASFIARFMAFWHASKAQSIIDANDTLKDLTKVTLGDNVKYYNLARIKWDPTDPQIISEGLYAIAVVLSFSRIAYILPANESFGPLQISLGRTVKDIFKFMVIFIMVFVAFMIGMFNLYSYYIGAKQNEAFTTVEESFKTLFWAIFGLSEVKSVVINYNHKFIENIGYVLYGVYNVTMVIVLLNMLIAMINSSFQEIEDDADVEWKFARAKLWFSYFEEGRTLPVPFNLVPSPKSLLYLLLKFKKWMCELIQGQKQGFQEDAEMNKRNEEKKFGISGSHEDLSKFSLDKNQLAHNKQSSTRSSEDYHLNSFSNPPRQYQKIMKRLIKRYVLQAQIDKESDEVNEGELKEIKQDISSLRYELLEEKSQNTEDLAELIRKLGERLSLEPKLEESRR
# Chain of Luciferin 4-monooxygenase (P08659 whole entry): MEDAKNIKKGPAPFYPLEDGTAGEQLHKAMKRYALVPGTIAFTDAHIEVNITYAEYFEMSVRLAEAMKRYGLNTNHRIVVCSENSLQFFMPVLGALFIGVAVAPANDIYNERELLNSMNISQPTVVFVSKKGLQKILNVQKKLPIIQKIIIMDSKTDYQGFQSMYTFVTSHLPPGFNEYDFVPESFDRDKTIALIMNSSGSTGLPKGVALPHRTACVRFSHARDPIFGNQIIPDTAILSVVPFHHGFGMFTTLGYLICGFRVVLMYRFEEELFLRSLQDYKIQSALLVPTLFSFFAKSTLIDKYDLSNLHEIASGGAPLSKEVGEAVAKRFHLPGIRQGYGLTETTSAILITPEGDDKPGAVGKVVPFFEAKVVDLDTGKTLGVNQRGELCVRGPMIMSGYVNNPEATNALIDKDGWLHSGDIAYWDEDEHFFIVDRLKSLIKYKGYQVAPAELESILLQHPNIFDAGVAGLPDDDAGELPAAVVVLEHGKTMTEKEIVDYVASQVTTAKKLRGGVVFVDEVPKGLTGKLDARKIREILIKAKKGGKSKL
compound,measurement,setting,value
Cc1cc(N2CCCCCC2)nc2ccccc12,IC50,[1],1.96 µM (active)
same,IC50,[2],9.55 µM (active)
same,IC50,[3],9.74 µM (active)
same,IC50,[4],1.5 µM (active)
Cc1cccc(C)c1NC(=O)C1CC2CCC1C2 (centres undefined),EC50,[5],3.24 µM (active)
same,EC50,[6],13.4 µM (active)
same,EC50,[7],4.66 µM (active)
CCOc1cc(CNCCc2ccc(S(N)(=O)=O)cc2)ccc1OCc1ccc(Cl)cc1,EC50,[8],9.07 µM (active)
same,EC50,[9],> 120 µM (not active)
same,EC50,[10],59.1 µM (active)
same,EC50,[11],8.2 µM (active)
same,EC50,[12],3.56 µM (active)
same,IC50,[13],> 20 µM (inactive)
same,AC50,Cytochrome P450 2C19,17.8 µM (inconclusive)
same,AC50,INS1,4.78 µM (active)
same,EC50,[14],16.1 µM (inactive)
same,AC50,[15],3.87 µM (active)
same,AC50,[16],9.14 µM (active)
same,AC50,[17],4.75 µM (active)
same,AC50,Cytochrome P450 2C9,11.2 µM (inconclusive)
CC1CCCCN1c1ncnc2c1cnn2-c1ccc(Cl)cc1 (centres undefined),AC50,[18],4.19 µM (active)
same,AC50,H4 [19],0.074 µM (active)
same,AC50,H4 [20],0.00838 µM (active)
same,AC50,H4 [21],0.018 µM (active)
